Tests used:
[1] = biological target: T1, purified human recombinant GK (Homo sapiens, UniProt P35557); experiment: Glucokinase activity assay (coupled enzymatic assay with G6PD, NADH absorbance at 340 nm); format: biochemical; settings: for EC50: EC50 of % change in S0.5 (% ΔS0.5) of glucokinase for glucose, sigmoidal fit; for Emax: Emax of % change in S0.5 (% ΔS0.5), vehicle control S0.5 = 0%, 0 mM glucose = 100%
T1 sequence (P35557 1-465): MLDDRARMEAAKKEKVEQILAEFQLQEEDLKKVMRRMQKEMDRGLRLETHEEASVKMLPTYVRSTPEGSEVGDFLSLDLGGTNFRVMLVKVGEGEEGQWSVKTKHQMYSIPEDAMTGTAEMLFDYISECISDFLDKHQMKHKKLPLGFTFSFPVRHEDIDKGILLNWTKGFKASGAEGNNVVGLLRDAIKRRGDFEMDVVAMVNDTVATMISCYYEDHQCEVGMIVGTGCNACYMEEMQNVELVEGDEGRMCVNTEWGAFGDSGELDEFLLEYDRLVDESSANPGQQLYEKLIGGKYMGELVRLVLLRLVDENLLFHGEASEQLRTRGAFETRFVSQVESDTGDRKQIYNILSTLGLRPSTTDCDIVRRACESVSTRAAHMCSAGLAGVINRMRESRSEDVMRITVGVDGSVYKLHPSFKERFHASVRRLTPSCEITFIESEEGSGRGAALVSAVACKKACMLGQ
Source text: The glucokinase (GK) assay is a coupled enzymatic assay. GK catalyzes the first step of glycolysis, the conversion of glucose to glucose-6-phosphate (G6P) in the presence of ATP. G6P in turn is converted by glucose-6-phosphate dehydrogenase (G6PD) to 6-phosphogluconate, a process that requires NAD, resulting in NADH formation. Since the GK-catalyzed step is the rate-limiting step of this coupled enzymatic process, the rate of accumulation of 6-phosphogluconate and NADH is directly proportional to the rate of glucose phosphorylation by GK. The rate of the GK-catalyzed reaction can therefore be measured by monitoring the increase in NADH absorbance at 340 nm.
The assay is carried out according to the protocol outlined in Hariharan et al (1997), Diabetes 46: 11-16. Briefly, the test compounds are incubated in a reaction mix containing 25 mM HEPES (pH 7.2), 10 mM MgCl2, 100 mM KCl, 5 mM ATP, 2 mM DTT, 0.5 mM NAD, 1 U/ml Leuconostoc mesenteroides G6PD, 0.3 U/ml of purified human recombinant GK, and different concentrations of glucose. Enzymatic activity is calculated from the initial reaction velocity, measured from the change in NADH absorbance as a function of time.
Compounds described in formula (I), in concentration ranges from 1.0 nM to 500 µM, are tested in the purified human recombinant glucokinase assay described above.
A compound is considered to be a glucokinase activator if it, in its testable range of concentrations, yields a higher rate of glucose phosphorylation than in its absence at a particular glucose concentration, for example at 5 mM glucose.
Compounds of general formula (I) are tested in the in vitro GK enzymatic assay to monitor dose-dependent effect on glucokinase activation (in kinetic mode), as described above, at various glucose concentrations. The S0.5 of glucokinase for glucose at different concentration of each compound of interest is calculated from the following modified version of the Michaelis-Menten equation, V = Vmax [S]^n/(S0.5^n + [S]^n), where [S] is the glucose concentration and n is the Hill coefficient (taken as 1.7 to account for the sigmoidal kinetics of glucokinase with respect to glucose). The S0.5 is plotted against the log of the compound concentration. The change in the S0.5 of glucokinase (ΔS0.5) for glucose is calculated by subtracting the S0.5 at each concentration of the compound from the S0.5 in the vehicle control. The ΔS0.5 is then normalized to a percent scale, where the S0.5 in the vehicle control is set to 0% and 0 mM glucose is set to 100%. The % ΔS0.5 is then plotted against the log of the compound concentration. The EC50 and Emax of % change in S0.5 is obtained from the sigmoidal fit of the data. Detailed protocol has been described in our copending application no. 409/CHE/2007 which is incorporated herein by reference. Characterization data of some representative glucokinase activators of the present disclosure, which are illustrative but not limiting, are given in table I below.
The glucokinase activation data of some representative compounds of the present disclosure, which are illustrative but not to be construed as limiting the scope or spirit of the disclosure, are given in the table I below. Table I: EC50 and Emax (with respect to % ΔS0.5) of GK activators

primary rat hepatocytes = experiment: Measurement of glycogen synthesis in primary rat hepatocytes; format: cell-based, male Wistar rats; settings: 10 µM compound, 10 mM glucose, 3 hours at 37°C, fold increase over DMSO control
Procedure: Primary hepatocytes are collected from male Wistar rats, and tested for viability by trypan blue exclusion. Primary hepatocytes cultures with viability greater than 95% are selected for the glycogen synthesis assay. The cells are seeded in a 48-well plate at a density of 200,000 cells/well in 250 µl Minimal Essential Medium (MEM) containing 10% foetal calf serum (FCS) and 1.7 µM insulin, and incubated for 4 hours at 37°C to allow attachment. The medium is replaced with fresh MEM containing 10% FCS, 1.7 µM insulin and 10 nM dexamethasone, and the cells are incubated for 16 hours at 37°C. The medium is then replaced with fresh MEM (serum-free) containing 2 µCi/ml of D-[U^14C]-Glucose along with 10 µM of the compound in a final DMSO concentration of 0.1%. The final glucose concentration is brought to 10 mM by the addition of D-Glucose (MEM already contains 5 mM glucose). The cells are incubated for 3 hours at 37°C. The cells are washed twice with 150 mM NaCl, lysed with 0.1 N NaOH, and the lysate precipitated with 8% w/v trichloroacetic acid (TCA) and 1 mg/well unlabeled glycogen as carrier. Cell debris is pelleted by centrifugation, the supernatant is removed, and the glycogen is precipitated with 63% ethanol. After another round of centrifugation, the supernatant is removed, and the pellet containing the precipitated glycogen is dried overnight. De novo synthesized glycogen is estimated in a scintillation counter (MicroBeta Trilux, Perkin Elmer), and expressed as fold increase over DMSO control.
The protocol for the glycogen assay is based on the method described in "Biochem J. 1990 Feb 15; 266(1): 91-102" with a few minor modifications. The protocol for isolation of primary rat hepatocytes is based on the method described in "Methods in Enzymology, Vol. III. pp 34-50. Ed. by S.P. Colowick and N.O. Kaplan. New York, Academic Press, 1957" with a few minor modifications.
Compounds described in formula (I), in concentration ranges from 1.0 nM to 500 µM, are tested in glycogen synthesis assay described above. […]

[2] = cited from earlier work

Row | EC50 [1] | Emax [1] | Compound | Fold increase in glycogen synthesis at 10 µM (primary rat hepatocytes) | hypoglycemic potential ([2]; at higher dose, Fyfe, M. C. T. (2007) Diabetologia, 50: 1277-1287) | hypoglycemia ([2]; animal efficacy models, Kamata, K. et al (2004) Structure 12: 429-438)
1 | 45 nM | 91% | O=C(O)c1ccc(Oc2cnc(NC(=O)C(OC3CCOCC3)c3ccc(S(=O)(=O)C4CC4)cc3)s2)c(F)c1 (stereo not shown) [Example B34, 4-{2-[2-(4-Cyclopropanesulfonyl-phenyl)-2-(tetrahydropyran-4-yloxy)-acetylamino]-thiazol-5-yloxy}-3-fluorobenzoic acid] |  |  | 
2 | 100 nM | 75% | O=C(O)c1ccc2nc(NC(=O)C(OC3CCOCC3)c3ccc(S(=O)(=O)C4CC4)cc3)sc2c1 (stereo not shown) [Example B41, 2-[2-(4-Cyclopropanesulfonyl-phenyl)-2-(tetrahydro-pyran-4-yloxy)-acetylamino]-benzothiazole-6-carboxylic acid] |  |  | 
3 | 99 nM | 88% | O=C(Nc1ncc(Oc2ccc(-c3nn[nH]n3)cc2)s1)C(OC1CCOCC1)c1ccc(S(=O)(=O)C2CC2)cc1 (stereo not shown) [Example E1, 2-(4-Cyclopropanesulfonyl-phenyl)-2-(tetrahydro-pyran-4-yloxy)-N-{5-[4-(2H-tetrazol-5-yl)-phenoxy]-thiazol-2-yl}-acetamide] |  |  | 
4 | 100 nM | 91% | O=C(Nc1ncc(Oc2ccc(CO)cc2)s1)C(OC1CCOCC1)c1ccc(S(=O)(=O)C2CC2)cc1 (stereo not shown) [Example F1, 2-(4-Cyclopropanesulfonyl-phenyl)-N-[5-(4-hydroxymethyl-phenoxy)-thiazol-2-yl]-2-(tetrahydro-pyran-4-yloxy)-acetamide] |  |  | 

The remaining lines, values behind:

Row | Compound | EC50 [1] | Emax [1] | Fold increase in glycogen synthesis at 10 µM (primary rat hepatocytes) | hypoglycemic potential ([2]; at higher dose, Fyfe, M. C. T. (2007) Diabetologia, 50: 1277-1287) | hypoglycemia ([2]; animal efficacy models, Kamata, K. et al (2004) Structure 12: 429-438)
5 | O=C(O)c1ccc(Oc2cnc(NC(=O)C(O[C@@H]3CCOC3)c3ccc(S(=O)(=O)C4CC4)cc3)s2)cc1 (single isomer, unassigned) [Example D6A] | 22 nM | 88% | 11 fold |  | 
6 | O=C(O)c1ccc(Oc2cnc(NC(=O)C(OC3CCOCC3)c3ccc(S(=O)(=O)C4CC4)cc3)s2)cc1 (single isomer, unassigned; (+)) [Example D4A, (+) 4-{2-[2-(4-Cyclopropanesulfonylphenyl)-2-(tetrahydro-pyran-4-yloxy)-acetylamino]-thiazol-5-yloxy}-benzoic acid] | 69 nM | 92% |  |  | 
7 | COc1ccc2nc(NC(=O)C(OC3CCOCC3)c3ccc(S(=O)(=O)C4CC4)cc3)sc2n1 (single isomer, unassigned; (+)) [Example D9A, (+)2-(4-Cyclopropanesulfonyl-phenyl)-N -(5-methoxy-thiazolo[5,4-b]pyridin-2-yl)-2-(tetrahydro-pyran-4-yloxy)-Acetamide] | 68 nM | 95% |  |  | 
8 | CCOc1ccc2nc(NC(=O)C(OC3CCOCC3)c3ccc(S(=O)(=O)C4CC4)cc3)sc2n1 (single isomer, unassigned; (+)) [Example D10A, (+)2-(4-Cyclopropanesulfonyl-phenyl)-N -(5-ethoxy-thiazolo[5,4-b]pyridin-2-yl)-2-(tetrahydro-pyran-4-yloxy)-a Cetamide] | 54 nM | 92% |  |  | 
9 | O=C(O)c1ccc(Oc2cnc(NC(=O)C(Oc3ccc(F)cc3F)c3ccc(S(=O)(=O)C4CC4)cc3)s2)cc1 (single isomer, unassigned; (+)) [Example D11A, (+)4-{2-[2-(4-Cyclopropanesulfonylphenyl)-2-(2,4-difluoro-phenoxy)-acetylamino]-thiazol-5-yloxy}-benzoic acid] | 34 nM | 95% | 15.5 fold |  | 
10 | O=C(Nc1nc2cccnc2s1)C(Oc1ccc(F)cc1F)c1ccc(S(=O)(=O)N2CCCCC2)cc1 (single isomer, unassigned; (-)) [Example D1A, (-)2-(2,4-Difluoro-phenoxy)-2-[4-(piperidine-1-sulfonyl)-phenyl]-N-thiazo lo[5,4-b]pyridin-2-yl-acetamide] | 84 nM | 85% |  |  | 
11 | NC(=O)c1cccc(Oc2cnc(NC(=O)C(Oc3ccc(F)cc3F)c3ccc(S(=O)(=O)C4CC4)cc3)s2)c1 (stereo not shown) [Example C6, 3-{2-[2-(4-Cyclopropanesulfonyl-phenyl)-2-(2,4-difluorophenoxy)-acetylamino]-thiazol-5-yloxy}-benzamide] |  |  | 13.5 fold |  | 
12 | O=C(Nc1ncc(F)s1)[C@H](CC1CCOCC1)c1ccc(S(=O)(=O)C2CC2)cc1 [PSN-GK1] |  |  |  | hypoglycemic potential is seen | 
13 | Ro-28-1675 |  |  |  |  | cause hypoglycemia
